In ChEMBL document CHEMBL1201862, “PubChem BioAssay data set” (2004):
The source made the active and inactive calls.

Key:
Aminopeptidase N = biological target: T1, Aminopeptidase N (Plasmodium falciparum FcB1/Columbia, UniProt O96935); assay: malaria alanyl aminopeptidase activity blockers – biochemical, fluorogenic H-Leu-NHMec substrate, 1536-well (AID 1445); parameters: species or system Plasmodium falciparum 3D7, 3D7
T1 sequence (O96935 whole entry): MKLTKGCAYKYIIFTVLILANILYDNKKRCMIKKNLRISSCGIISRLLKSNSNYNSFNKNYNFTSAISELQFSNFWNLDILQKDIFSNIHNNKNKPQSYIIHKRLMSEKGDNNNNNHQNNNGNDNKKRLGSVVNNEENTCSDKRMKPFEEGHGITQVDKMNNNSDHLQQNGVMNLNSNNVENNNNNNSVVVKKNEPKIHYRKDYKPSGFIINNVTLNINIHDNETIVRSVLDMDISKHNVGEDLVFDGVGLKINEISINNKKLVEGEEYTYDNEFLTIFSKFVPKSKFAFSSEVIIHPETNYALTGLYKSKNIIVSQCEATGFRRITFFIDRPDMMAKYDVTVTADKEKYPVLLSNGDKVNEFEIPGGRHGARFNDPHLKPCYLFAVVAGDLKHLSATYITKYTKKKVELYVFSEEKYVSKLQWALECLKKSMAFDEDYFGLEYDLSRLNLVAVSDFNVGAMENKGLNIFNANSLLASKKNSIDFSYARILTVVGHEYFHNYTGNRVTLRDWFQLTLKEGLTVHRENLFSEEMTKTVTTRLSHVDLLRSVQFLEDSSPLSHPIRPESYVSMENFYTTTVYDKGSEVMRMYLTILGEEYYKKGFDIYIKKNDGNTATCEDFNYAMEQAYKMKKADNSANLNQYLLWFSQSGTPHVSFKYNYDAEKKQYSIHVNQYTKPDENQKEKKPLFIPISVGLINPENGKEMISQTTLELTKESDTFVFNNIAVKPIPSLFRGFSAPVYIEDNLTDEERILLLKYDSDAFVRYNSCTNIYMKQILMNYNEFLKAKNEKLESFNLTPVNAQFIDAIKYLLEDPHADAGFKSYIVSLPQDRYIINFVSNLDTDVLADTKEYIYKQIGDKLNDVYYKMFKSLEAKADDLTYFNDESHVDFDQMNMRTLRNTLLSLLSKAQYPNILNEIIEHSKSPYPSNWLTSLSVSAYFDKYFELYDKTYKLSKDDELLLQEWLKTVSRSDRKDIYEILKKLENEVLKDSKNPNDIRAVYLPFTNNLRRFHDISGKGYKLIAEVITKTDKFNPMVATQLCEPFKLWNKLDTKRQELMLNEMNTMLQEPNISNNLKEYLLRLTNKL

[1] = biological target: T2, Kappa-type opioid receptor (Homo sapiens, UniProt P41145); type: functional
T2 sequence (P41145 whole entry): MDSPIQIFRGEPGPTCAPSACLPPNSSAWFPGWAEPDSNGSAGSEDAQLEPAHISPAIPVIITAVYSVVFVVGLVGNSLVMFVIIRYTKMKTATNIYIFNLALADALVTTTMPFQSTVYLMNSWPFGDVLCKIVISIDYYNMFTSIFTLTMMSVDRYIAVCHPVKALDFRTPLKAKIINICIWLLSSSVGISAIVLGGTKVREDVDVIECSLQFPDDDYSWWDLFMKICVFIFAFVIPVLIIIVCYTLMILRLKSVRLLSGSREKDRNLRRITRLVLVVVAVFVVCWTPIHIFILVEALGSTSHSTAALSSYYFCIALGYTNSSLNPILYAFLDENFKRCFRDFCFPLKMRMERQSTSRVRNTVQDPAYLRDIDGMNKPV

[2] = biological target: T2, Kappa-type opioid receptor; type: functional; remark: listed apart in the source
Leucine aminopeptidase = biological target: T3, Leucine aminopeptidase (Plasmodium falciparum 3D7, UniProt Q8IL11); assay: P. falciparum M17LAP inhibitors, primary screen, biochemical, fluorogenic H-Leu-NHMec substrate, 1536-well (AID 1619); type: functional
T3 sequence (Q8IL11 whole entry): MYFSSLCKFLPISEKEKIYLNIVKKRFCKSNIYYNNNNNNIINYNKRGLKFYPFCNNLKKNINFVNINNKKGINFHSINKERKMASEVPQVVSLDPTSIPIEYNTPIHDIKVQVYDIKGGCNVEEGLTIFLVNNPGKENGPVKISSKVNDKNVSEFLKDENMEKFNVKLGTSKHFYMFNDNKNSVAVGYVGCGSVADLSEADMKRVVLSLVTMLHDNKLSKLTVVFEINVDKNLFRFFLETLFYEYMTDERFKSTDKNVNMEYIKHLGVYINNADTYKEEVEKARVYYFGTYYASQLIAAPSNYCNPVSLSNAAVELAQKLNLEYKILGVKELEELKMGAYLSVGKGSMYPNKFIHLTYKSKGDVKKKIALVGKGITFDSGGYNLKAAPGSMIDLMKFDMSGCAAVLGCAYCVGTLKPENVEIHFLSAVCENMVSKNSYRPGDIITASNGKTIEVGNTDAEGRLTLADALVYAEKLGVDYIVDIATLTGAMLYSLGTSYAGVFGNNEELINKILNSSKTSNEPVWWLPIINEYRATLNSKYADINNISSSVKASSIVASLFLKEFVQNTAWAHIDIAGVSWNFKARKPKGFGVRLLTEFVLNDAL

Beta-galactosidase = Beta-galactosidase (Escherichia coli, UniProt Q8VNN2); type: functional
Sequence of Beta-galactosidase (Q8VNN2 whole entry): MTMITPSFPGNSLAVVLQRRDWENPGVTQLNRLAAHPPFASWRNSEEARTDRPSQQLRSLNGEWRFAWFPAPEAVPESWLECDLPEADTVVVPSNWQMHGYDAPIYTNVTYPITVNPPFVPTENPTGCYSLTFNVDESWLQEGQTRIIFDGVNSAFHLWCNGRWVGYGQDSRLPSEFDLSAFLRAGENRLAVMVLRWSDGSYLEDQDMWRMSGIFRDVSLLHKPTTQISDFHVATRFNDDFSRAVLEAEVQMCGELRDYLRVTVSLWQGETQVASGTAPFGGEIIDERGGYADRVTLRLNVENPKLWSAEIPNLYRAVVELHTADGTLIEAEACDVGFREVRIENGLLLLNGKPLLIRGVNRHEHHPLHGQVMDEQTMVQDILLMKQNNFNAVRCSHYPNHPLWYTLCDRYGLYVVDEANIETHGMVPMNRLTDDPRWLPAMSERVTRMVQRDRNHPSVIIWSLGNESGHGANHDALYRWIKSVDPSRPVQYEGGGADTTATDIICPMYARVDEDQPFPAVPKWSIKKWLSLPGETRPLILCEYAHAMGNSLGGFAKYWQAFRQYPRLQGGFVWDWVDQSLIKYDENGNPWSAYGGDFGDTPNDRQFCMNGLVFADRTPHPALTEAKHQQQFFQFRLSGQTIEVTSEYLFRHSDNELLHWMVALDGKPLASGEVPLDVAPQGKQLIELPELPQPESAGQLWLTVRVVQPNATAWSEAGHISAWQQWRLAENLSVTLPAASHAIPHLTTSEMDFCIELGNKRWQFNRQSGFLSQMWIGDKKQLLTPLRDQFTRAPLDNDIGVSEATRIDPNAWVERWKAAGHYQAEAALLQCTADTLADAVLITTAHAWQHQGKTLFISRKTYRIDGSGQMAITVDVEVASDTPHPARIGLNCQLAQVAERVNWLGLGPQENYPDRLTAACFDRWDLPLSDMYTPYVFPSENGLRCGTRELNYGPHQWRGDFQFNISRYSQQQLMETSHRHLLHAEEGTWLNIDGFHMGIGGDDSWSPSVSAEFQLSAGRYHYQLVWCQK

HT-1080 = assay: HT1080 cell viability loss – fluorescence readout (AID 620); type: functional, cell-based; conditions: Homo sapiens
[3] = Luminescence Cell-Based Dose Response HTS to Identify Inhibitors of 5'UTR Stem-Loop Driven Prion Protein mRNA Translation in H4 Neuroglioblastoma Cells. [Related pubchem assays: 1827 (Project Summary), 1813 (Primary HTS)]; type: functional
[4] = alpha-synuclein stem-loop luciferase translation blockers – H4 neuroglioma cells, luminescence, confirmation (AID 1988); type: functional, cell-based
[5] = biological target: T4, Luciferin 4-monooxygenase (Photinus pyralis, UniProt P08659); assay: Counter Screen for Luciferase-based Assay Positives. [Related pubchem assays: 620, 618, 411 ]
T4 sequence (P08659 whole entry): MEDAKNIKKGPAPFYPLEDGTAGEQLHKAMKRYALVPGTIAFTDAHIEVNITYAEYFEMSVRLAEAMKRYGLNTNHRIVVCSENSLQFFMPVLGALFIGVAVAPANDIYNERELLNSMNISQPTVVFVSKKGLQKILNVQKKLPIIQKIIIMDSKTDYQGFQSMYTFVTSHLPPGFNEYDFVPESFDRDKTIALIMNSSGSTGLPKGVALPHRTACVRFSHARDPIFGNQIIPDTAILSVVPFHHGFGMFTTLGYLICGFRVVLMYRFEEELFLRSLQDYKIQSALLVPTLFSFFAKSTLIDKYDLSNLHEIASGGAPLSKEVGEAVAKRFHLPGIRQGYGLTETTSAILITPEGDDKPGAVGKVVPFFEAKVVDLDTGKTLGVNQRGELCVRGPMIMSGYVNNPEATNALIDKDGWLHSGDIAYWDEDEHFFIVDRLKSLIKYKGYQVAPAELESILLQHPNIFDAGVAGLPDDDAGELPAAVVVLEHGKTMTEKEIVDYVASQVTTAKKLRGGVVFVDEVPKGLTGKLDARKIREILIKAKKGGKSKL

[6] = biological target: T5, Mannose-6-phosphate isomerase (Homo sapiens, UniProt P34949); assay: MPI enzyme activity inhibition – biochemical, fluorescence intensity, coupled assay, primary screen (AID 1209)
T5 sequence (P34949 whole entry): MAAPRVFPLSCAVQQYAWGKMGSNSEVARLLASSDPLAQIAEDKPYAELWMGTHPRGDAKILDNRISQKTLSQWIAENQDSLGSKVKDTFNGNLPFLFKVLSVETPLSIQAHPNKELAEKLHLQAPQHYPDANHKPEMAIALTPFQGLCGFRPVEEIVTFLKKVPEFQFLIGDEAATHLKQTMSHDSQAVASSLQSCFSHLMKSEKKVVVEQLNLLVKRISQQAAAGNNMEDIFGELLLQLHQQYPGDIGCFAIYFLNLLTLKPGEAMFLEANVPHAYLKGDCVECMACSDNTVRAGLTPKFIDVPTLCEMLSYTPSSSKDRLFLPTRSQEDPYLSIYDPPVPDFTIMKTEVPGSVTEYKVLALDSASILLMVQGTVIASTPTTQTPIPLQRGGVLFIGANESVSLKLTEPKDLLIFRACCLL

[7] = biological target: Intestinal-type alkaline phosphatase (Homo sapiens, UniProt P09923); assay: Dose Response confirmation of uHTS hits from a small molecule inhibitors of human intestinal alkaline phosphatase via a luminescent assay. [Related pubchem assays (depositor defined):AID2544, AID2574]; type: functional
Sequence of Intestinal-type alkaline phosphatase (P09923 whole entry): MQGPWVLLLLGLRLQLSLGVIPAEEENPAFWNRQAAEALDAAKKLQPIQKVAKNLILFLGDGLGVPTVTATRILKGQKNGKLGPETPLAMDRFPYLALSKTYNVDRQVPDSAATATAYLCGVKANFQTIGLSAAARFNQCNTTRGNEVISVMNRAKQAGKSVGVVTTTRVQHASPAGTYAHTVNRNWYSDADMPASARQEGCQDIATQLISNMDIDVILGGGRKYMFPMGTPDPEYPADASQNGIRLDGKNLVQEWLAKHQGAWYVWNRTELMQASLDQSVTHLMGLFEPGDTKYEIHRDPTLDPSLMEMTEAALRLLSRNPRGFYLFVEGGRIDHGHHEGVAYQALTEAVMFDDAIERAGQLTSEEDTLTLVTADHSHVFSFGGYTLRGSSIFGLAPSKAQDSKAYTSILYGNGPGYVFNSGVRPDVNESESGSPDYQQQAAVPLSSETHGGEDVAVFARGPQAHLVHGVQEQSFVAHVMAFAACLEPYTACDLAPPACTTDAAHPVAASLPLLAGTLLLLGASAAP

cells [8] = assay: cells
[9] = biological target: Polyadenylate-binding protein 1 (Homo sapiens, UniProt P11940); assay: blockers of PABP interaction with poly(A) – biochemical, fluorescence polarization, […] (AID 2014)
Sequence of Polyadenylate-binding protein 1 (P11940 whole entry): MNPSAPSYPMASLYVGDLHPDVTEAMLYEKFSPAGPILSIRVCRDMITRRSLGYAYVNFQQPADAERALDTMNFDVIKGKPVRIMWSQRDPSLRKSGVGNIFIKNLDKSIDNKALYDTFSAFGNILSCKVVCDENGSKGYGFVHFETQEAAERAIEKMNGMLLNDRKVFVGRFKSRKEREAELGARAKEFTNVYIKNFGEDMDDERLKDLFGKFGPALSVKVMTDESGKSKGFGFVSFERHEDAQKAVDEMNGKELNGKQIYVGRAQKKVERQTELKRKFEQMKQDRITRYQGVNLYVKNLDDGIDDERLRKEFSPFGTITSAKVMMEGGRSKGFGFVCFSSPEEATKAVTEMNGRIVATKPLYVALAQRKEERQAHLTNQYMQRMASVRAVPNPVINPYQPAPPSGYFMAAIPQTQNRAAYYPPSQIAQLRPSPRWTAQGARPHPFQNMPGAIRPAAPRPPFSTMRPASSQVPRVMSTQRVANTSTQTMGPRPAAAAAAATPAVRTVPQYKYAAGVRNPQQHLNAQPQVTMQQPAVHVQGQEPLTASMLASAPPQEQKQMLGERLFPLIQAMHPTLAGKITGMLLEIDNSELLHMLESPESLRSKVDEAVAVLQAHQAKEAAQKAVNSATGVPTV

[10] = biological target: Eukaryotic translation initiation factor 4H (Homo sapiens, UniProt Q15056); assay: eIF4H binding inhibition – biochemical, uHTS, fluorescence polarization, translation initiation inhibitor project, primary screen (AID 2012)
[11] = viability of PTEN-deleted HCT116 cells – cell-based, HCT116 PTEN knockout, dose response (AID 1047); type: functional;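 further: HCT116 colon tumor cells with PTEN knocked out; cells exposed to compound for 60 hours before readout; potency for loss of cell viability measured by luminescence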
[12] = viability of HCT116 lacking mutant beta-catenin – cell-based, human colon tumor, dose response (AID 1045); type: functional;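 further: HCT116 colon tumor cells with beta catenin knocked out; cells exposed to compound for 60 hours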
[13] = A Cell Based Secondary Assay To Explore Cytotoxicity of Compounds that Sensitize Mycobacterium Tuberculosis to Beta-Lactam Antibiotics.; type: functional
[14] = viability of uninfected HEp-2 cells – cell-based, HTS, cytotoxicity control for RSV inhibitor project, dose response (AID 2410); type: functional; conditions: human respiratory syncytial virus
Vero = assay: cells; type: functional, cell-based; conditions: Chlorocebus sabaeus
[15] = biological target: T6, Heat shock 70 kDa protein 1A (Homo sapiens, UniProt P0DMV8); assay: small-molecule inhibition of Hsp70 – biochemical, TR-FRET (AID 786)
T6 sequence (P0DMV8 whole entry): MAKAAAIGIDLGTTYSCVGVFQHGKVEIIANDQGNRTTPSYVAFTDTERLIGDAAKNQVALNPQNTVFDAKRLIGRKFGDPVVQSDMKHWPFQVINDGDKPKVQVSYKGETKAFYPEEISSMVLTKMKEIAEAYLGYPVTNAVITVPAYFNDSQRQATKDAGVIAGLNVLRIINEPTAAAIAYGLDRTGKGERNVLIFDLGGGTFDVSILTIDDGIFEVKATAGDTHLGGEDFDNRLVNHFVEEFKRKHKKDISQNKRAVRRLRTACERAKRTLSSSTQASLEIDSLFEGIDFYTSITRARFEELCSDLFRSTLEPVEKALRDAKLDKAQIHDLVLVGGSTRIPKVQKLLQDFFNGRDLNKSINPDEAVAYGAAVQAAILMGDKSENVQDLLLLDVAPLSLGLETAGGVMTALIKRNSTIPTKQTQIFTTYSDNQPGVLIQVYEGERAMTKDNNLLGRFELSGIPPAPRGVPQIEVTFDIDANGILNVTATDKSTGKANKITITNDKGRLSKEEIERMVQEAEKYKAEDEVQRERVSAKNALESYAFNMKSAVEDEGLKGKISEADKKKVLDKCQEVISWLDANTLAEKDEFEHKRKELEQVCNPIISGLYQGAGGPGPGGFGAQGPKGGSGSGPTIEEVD

[16] = biological target: T6, Heat shock 70 kDa protein 1A; assay: small molecules displacing fluorescent ligand from Hsp70 – biochemical, fluorescence polarization, primary screen (AID 583)
[17] = Luminescence Cell-Based Dose Confirmation HTS to Identify Inhibitors of Platelet Dense Granule Release. [Related pubchem assays: 1663 (Primary HTS), 1678 (Summary of Project)]; type: functional
[18] = luciferase reporter signal suppression in cells – H4 neuroglioma cells, luminescence, dose response (AID 1990); type: functional, cell-based
cells [19] = type: functional, cell-based
[20] = luciferase reporter signal reduction – luminescence, H4-C neuroglioblastoma cells, dose response (AID 2458); type: functional, cell-based;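 further: H4 neuroglioblastoma cells stably carrying a luciferase reporter gene fusion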
[21] = alpha-synuclein stem-loop translation blockers – luminescence, H4 neuroglioblastoma cells, dose confirmation, confirmation (AID 2454); type: functional, cell-based;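 further: H4 neuroglioblastoma cells carrying an alpha-synuclein 5'UTR luciferase reporter; potency for inhibition of the luciferase signal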
[22] = biological target: T4, Luciferin 4-monooxygenase; assay: inhibition of purified Photinus pyralis luciferase – biochemical, luminescence, dose response (AID 1891)

For CCOc1cc(/C=C2\SC(=S)N(C(C(=O)O)c3ccccc3)C2=O)ccc1O (stereo not given), the IC50 (Aminopeptidase N) was 31.8 µM (active), the IC50 [1] was over 32 µM and the IC50 [2] was 23.2 µM (inactive). For the same compound, the IC50 (Leucine aminopeptidase) was 45.5 µM (active) and the EC50 (Beta-galactosidase) was 14.3 µM (active).
In the case of Cc1csc(NC(=O)C2COc3ccccc3O2)n1 (stereo not given), the EC50 (HT-1080) is reported as > 50 µM (not active), the EC50 [3] is reported as 10.7 µM (inconclusive) and the EC50 [4] is reported as 7.32 µM (active). The EC50 [5] was 0.56 µM (active).
For CC(=O)NNC(=S)NC(=O)c1cccc([N+](=O)[O-])c1, the IC50 [6] was > 50 µM (not active) and the IC50 (Leucine aminopeptidase) was 45.8 µM (active).
In the case of CC1Cn2c(nnc2C23CC4CC(CC(C4)C2)C3)S1 (stereo not given), the IC50 [7] is reported as > 100 µM (inactive).
For Cc1ccc(/C=N\NC(=O)C2CN(S(=O)(=O)c3ccccc3)CCN2S(=O)(=O)c2ccccc2)cc1 (stereo not given), the IC50 (cells [8]) was 13.6 µM (active).
For O=C(CN1CCN(S(=O)(=O)/C=C/c2ccccc2)CC1)NC(=O)NCc1ccco1, the IC50 [9] was > 100 µM (inactive) and the IC50 [10] was 13.1 µM (active).
In the case of COc1ccc(OC)c(C2CC(c3c(O)nc4ccc(Cl)cc4c3-c3ccccc3)=NN2S(C)(=O)=O)c1 (stereo not given), the EC50 [11] is reported as 9.08 µM (active), the EC50 [12] is reported as 11.3 µM (active) and the CC50 [13] is reported as > 40 µM (active).
For Nc1ccc(C(=O)OCc2nc3cc4ccccc4cc3[nH]2)cc1, the CC50 [14] was 36.6 µM (active), the IC50 (Vero) was 3.67 µM (active) and the IC50 (cells [8]) was 23.6 µM (active).
For CCOC(=O)CNC(=O)CNC(=O)Cn1ccc2ccccc2c1=O, the IC50 [15] was > 100 µM (not active) and the IC50 [16] was > 100 µM (not active).
In the case of CCN(CC)c1ccc(C2=NNC(=O)CC2C)cc1[N+](=O)[O-] (stereo not given), the EC50 [17] is reported as 0.504 µM (active), the EC50 [18] is reported as < 0.1 µM (active) and the EC50 [4] is reported as < 0.1 µM (active). The EC50 (cells [19]) was 0.194 µM (active), the EC50 [20] was 0.05 µM (active) and the EC50 [21] was 0.123 µM (active). The EC50 [22] was > 112 µM (not active).
